Assay results from patent US4299839A, “Novel pesticides and pesticidal compositions cyclopropanecarboxylates and pesticidal method” (priority 1979, dated 1981).
Where two headings read alike, the source gives them in different places.

What was measured:
Fish Toxicity Test = format: in vivo; settings: guppy, water; rank; 50% of female guppies killed during 48 hours, 20° C.; [Mixture] = cis/trans 50/50; read-out: TLm (medium tolerance limit)
Protocol: (§1) The mixture was stirred well to prepare a test water. Ten female guppies from 3 to 4 months of age were released into the test water and maintained at 20° C. The concentration of the test compound at which 50% of the guppies were killed during the ensuring 48 hours was determined. [This concentration is referred to as TLm (medium tolerance limit, ppm)].
(§2) A rank corresponds to TLm of not less than 10 ppm.
(§3) B rank corresponds to TLm of 0.5-10 ppm.
(§4) C rank corresponds to TLm of not more than 0.5 ppm.

[1] = tested on: housefly (Musca domestica); assay: Mortality test against houseflies by topical application; format: in vivo
Protocol: Each test compound was accurately weighed and a 1% solution and an 0.1% solution of the sample in acetone were prepared. A 1 μl portion of either of the above solutions was micropipetted onto the thoracic dorsal part of each female adult housefly (Musca domestica) under ether anaesthesia and the fly was released in a high-walled dish together with feed. The dish was covered with a metal-wire net and maintained at 25° C. After 24 hours, the test flies were inspected for deaths and the mortality (%) was calculated. Thirty test flies were used per concentration group.

guppies = assay: Fish Toxicity Test; format: in vivo; settings: rank; 50% of female guppies killed during 48 hours, 20° C.; [Mixture] = cis/trans 50/50
Protocol: as §1, §2, §3, §4

houseflies = assay: Utility Example 3: settling mist method, mortality test against houseflies, oil preparations of Formulation Example 3; format: in vivo; settings: oil preparation of Formulation Example 3 (0.1 part compound + 0.08 part permethrin per 100 parts), 24 hours; cis/trans 50/50
Protocol: To 0.1 part of each of Compounds (1) to (38) was added 0.08 part of permethrin, followed by the addition of a sufficient amount of kerosene to make 100 parts. The mixture was stirred to obtain an oil preparation of each compound.
By the settling mist method, a mortality test against houseflies was carried out using the oil preparations obtained in Formulation Example 3 from Compounds (1), (5), (7), (9), (11), (12), (15), (17) and (28) [Each compound is a mixture of cis- and trans-isomer in a ratio 50/50]. After 24 hours, the flies were examined for deaths. The mortality (%) was not less than 90% for each of Compounds (1), (5), (7), (9), (11), (12), (15), (17) and (28).

Light Stability Test = format: physicochemical; settings: ultraviolet light, wavelength=3600 A, 31°-35° C., on glass plate
Protocol: Into 2.0 ml of acetone were dissolved 80 mg of each test compound. A 5 μl portion of the solution was taken and spread on a glass plate (Micro Standard Cover Glass, 18 m/m No. 1, 200 pcs, Matsunami Glass Ind., Ltd.) and the acetone was evaporated. The specimen was exposed to ultraviolet light from a fluorescent lamp (Tokyo Shibaura Electric Co., Ltd., FL20BL, glow-type, 100 V, 24.5 W, wavelength=3600 A) which was fixed just above the specimen at a distance of 11 cm at a temperature of 31°-35° C. for a predetermined exposure time. The test liquid was washed away with 1.0 ml of methanol containing 0.04% of dioctyl phthalate as an internal reference and high-speed liquid chromatography was carried out on the washings to determine the residual amount of the test compound.

[2] = 1μg/fly, female adult, 24 hours, 25° C., [Mixture] = cis/trans 50/50, read-out: Mortality (%)
[3] = 10μg/fly, female adult, 24 hours, 25° C., [Mixture] = cis/trans 50/50, read-out: Mortality (%)

| Structure (SMILES) | LC50 at 48 h (Fish Toxicity Test) | mortality at 1 µg/fly ([1]; 24 h) | mortality at 10 µg/fly ([1]; 24 h) | also measured |
| --- | --- | --- | --- | --- |
| CC1(C)C(C=C(Cl)Cl)C1C(=O)OCc1cccc(Oc2ccccc2)c1 (racemic) [Permethrin, 3-phenoxybenzyl (+)-cis,trans-2,2-dimethyl-3-(2,2-dichlorovinyl)-cyclopropanecarboxylate, reference compound] | ≤ 0.5 µg/mL |  |  |  |
| CC1(C)[C@H](C(=O)OCc2cccc(Oc3ccccc3)c2)[C@@H]1CC(Cl)(Cl)Cl (relative stereo) [Compound (1) [Cis-isomer], 3-Phenoxybenzyl 2,2-dimethyl-3-(2,2,2-trichloroethyl)cyclopropanecarboxylate] | ≥ 10 µg/mL | 96.7% | 100% |  |
| C#CC(OC(=O)[C@@H]1[C@@H](CC(Cl)(Cl)Cl)C1(C)C)c1cccc(Oc2ccccc2)c1 (relative stereo) [Compound (11) [Trans-isomer], 3-Phenoxy-α-ethynylbenzyl 2,2-dimethyl-3-(2,2,2-trichloroethyl)cyclopropanecarboxylate] |  |  |  | TLm (medium tolerance limit) (guppies): A (A rank corresponds to TLm of not less than 10 ppm) |
| CC1(C)C(CC(Cl)(Cl)Cl)C1C(=O)OCc1cccc(Oc2ccccc2)c1 (centres unmarked) [(1), 3-Phenoxybenzyl 2,2-dimethyl-3-(2,2,2-trichloroethyl)cyclopropanecarboxylate] |  |  |  | Mortality (%) (houseflies): not less than 90% |
| CC(Cl)(Cl)CC1C(C(=O)OCc2cccc(Oc3ccccc3)c2)C1(C)C (centres unmarked) [(5), 3-Phenoxybenzyl 2,2-dimethyl-3-(2,2-dichloropropyl)cyclopropanecarboxylate] |  |  |  | Mortality (%) (houseflies): not less than 90% |
| C=CCC1=C(C)C(OC(=O)C2C(C=C(C)C)C2(C)C)CC1=O (centres unmarked) [Allethrin, reference compound] | ≤ 0.5 µg/mL | 33.3% | 100% | Residue (%) (Light Stability Test; exposure time 3.5 hrs.): 14%; Residue (%) (Light Stability Test; exposure time 3 days): 0% |
| CC1(C)C(CC(Cl)(Cl)Cl)C1C(=O)OCc1cccc(Oc2ccc(Cl)cc2)c1 (centres unmarked) [Compound (2) [Mixture], 3-(4-Chlorophenoxy)benzyl 2,2-dimethyl-3-(2,2,2-trichloroethyl)cyclopropanecarboxylate] | ≥ 10 µg/mL | 0% | 86.7% |  |
| CC(Cl)(Cl)CC1C(C(=O)OCc2cccc(Oc3ccccc3)c2)C1(C)C (centres unmarked) [Compound (5) [Mixture], 3-Phenoxybenzyl 2,2-dimethyl-3-(2,2-dichloropropyl)cyclopropanecarboxylate] |  | 100% | 100% |  |
| CC1(C)[C@H](CC(Cl)(Cl)Cl)[C@H]1C(=O)OC(C#N)c1cccc(Oc2ccccc2)c1 (stereo partly drawn) [Compound (7) [Trans-isomer], 3-Phenoxy-α-cyanobenzyl 2,2-dimethyl-3-(2,2,2-trichloroethyl)cyclopropanecarboxylate] |  |  |  | TLm (medium tolerance limit) (guppies): B (B rank corresponds to TLm of 0.5-10 ppm) |
| CC(Cl)(Cl)CC1C(C(=O)OC(C#N)c2cccc(Oc3ccccc3)c2)C1(C)C (stereo not drawn) [Compound (9) [Mixture], 3-Phenoxy-α-cyanobenzyl 2,2-dimethyl-3-(2,2-dichloropropyl)cyclopropanecarboxylate] |  | 100% | 100% |  |
| CC(Cl)(Cl)CC1C(C(=O)OC(C#N)c2cccc(Oc3ccccc3)c2)C1(C)C (stereo not drawn) [Compound (9), 3-Phenoxy-α-cyanobenzyl 2,2-dimethyl-3-(2,2-dichloropropyl)cyclopropanecarboxylate] |  |  |  | Mortality (%) (houseflies): not less than 90% |
| C#CC(OC(=O)C1C(CC(Br)(Br)Br)C1(C)C)c1cccc(Oc2ccccc2)c1 (stereo not drawn) [Compound (12) [Mixture], 3-Phenoxy-α-ethynylbenzyl 2,2-dimethyl-3-(2,2,2-tribromoethyl)cyclopropanecarboxylate] | ≥ 10 µg/mL |  |  |  |
| C#CC(OC(=O)[C@@H]1[C@H](CC(C)(Cl)Cl)C1(C)C)c1cccc(Oc2ccccc2)c1 (stereo partly drawn) [Compound (13) [Cis-isomer], 3-Phenoxy-α-ethynylbenzyl 2,2-dimethyl-3-(2,2-dichloropropyl)cyclopropanecarboxylate] |  |  |  | TLm (medium tolerance limit) (guppies): A (A rank corresponds to TLm of not less than 10 ppm) |
| CC1(C)C(CC(Cl)(Cl)Cl)C1C(=O)OC(C#N)c1cccc(Oc2ccc(Cl)cc2)c1 (stereo not drawn) [Compound (15) [Mixture], 3-(4-Chlorophenoxy)-α-cyanobenzyl 2,2-dimethyl-3-(2,2,2-trichloroethyl)cyclopropanecarboxylate] | ≥ 10 µg/mL | 86.7% | 100% |  |
| C#CC(OC(=O)C1C(CC(Cl)(Cl)Cl)C1(C)C)c1cccc(Oc2ccc(Cl)cc2)c1 (stereo not drawn) [Compound (21) [Mixture], 3-(4-Chlorophenoxy)-α-ethynylbenzyl 2,2-dimethyl-3-(2,2,2-trichloroethyl)cyclopropanecarboxylate] | ≥ 10 µg/mL | 60% | 93.3% |  |
| CC1(C)C(CC(Cl)(Cl)Cl)C1C(=O)OCc1coc(Cc2ccccc2)c1 (centres unmarked) [Compound (28) [Mixture], 5-Benzyl-3-furylmethyl 2,2-dimethyl-3-(2,2,2-trichloroethyl)cyclopropanecarboxylate] | ≥ 10 µg/mL | 86.7% | 100% |  |
| CC1(C)C(CC(Cl)(Cl)Cl)C1C(=O)OCc1cccc(OC=C(Cl)Cl)c1 (centres unmarked) [Compound (33) [Mixture], 3-(2,2-dichlorovinyloxy)benzyl 2,2-dimethyl-3-(2,2,2-trichloroethyl)cyclopropanecarboxylate] | ≥ 10 µg/mL |  |  | mortality at 1 µg/fly [1, 2]: 6.7%; mortality at 10 µg/fly [1, 3]: 33.3% |
| CC1(C)C(CC(Cl)(Cl)Cl)C1C(=O)OC(C#N)c1cccc(OC=C(Cl)Cl)c1 (stereo not drawn) [Compound (34) [Mixture], 3-(2,2-dichlorovinyloxy)-α-cyanobenzyl 2,2-dimethyl-3-(2,2,2-trichloroethyl)cyclopropanecarboxylate] | ≥ 10 µg/mL |  |  | Residue (%) (Light Stability Test; exposure time 3.5 hrs.): 100%; Residue (%) (Light Stability Test; exposure time 3 days): 88%; Residue (%) (Light Stability Test; exposure time 5 days): 44%; mortality at 1 µg/fly [1, 2]: 56.7%; mortality at 10 µg/fly [1, 3]: 100% |
| CC1(C)C(CC(Cl)(Cl)Cl)C1C(=O)OCN1C(=O)C2=C(CCCC2)C1=O (centres unmarked) [Compound (37) [Mixture], 3,4,5,6-Tetrahydrophthalimidomethyl 2,2-dimethyl-3-(2,2,2-trichloroethyl)cyclopropane carboxylate] | 0.5 to 10 µg/mL | 40% | 56.7% |  |
| C=CCC1=C(C)C(OC(=O)C2C(CC(Cl)(Cl)Cl)C2(C)C)CC1=O (centres unmarked) [Compound (38) [Mixture], Allethronyl 2,2-dimethyl-3-(2,2,2-trichloroethyl)cyclopropanecarboxylate] | 0.5 to 10 µg/mL | 6.7% | 100% |  |
| CC1(C)C(C=C(Cl)Cl)C1C(=O)OC(C#N)c1cccc(Oc2ccccc2)c1 (stereo not drawn) [Cypermethrin, 3-phenoxy-α-cyanobenzyl 2,2-dimethyl-3-(2,2-dichlorovinyl)cyclopropanecarboxylate, reference compound] | ≤ 0.5 µg/mL |  |  |  |
| CC(C)C(C(=O)OC(C#N)c1cccc(Oc2ccccc2)c1)c1ccc(Cl)cc1 (stereo not drawn) [Fenvalerate, 3-phenoxy-α-cyanobenzyl α-(4-chlorophenyl)isovalerate, reference compound] | ≤ 0.5 µg/mL |  |  |  |
| CC(C)=CC1C(C(=O)OCc2coc(Cc3ccccc3)c2)C1(C)C (centres unmarked) [Resmethrin, 5-benzyl-3-furylmethyl chrysanthemate, reference compound] | ≤ 0.5 µg/mL |  |  |  |
